Source: patent US4719223A, “Imidazolethiol dopamine-beta-hydroxylase inhibitors” (SmithKline Beckman Corporation, priority 1985, dated 1988)
Where two headings read alike, the source gives them in different places. One block for each compound: values may come before it.

What was measured:
[1] = molecular target: T1, dopamine-β-hydroxylase (DBH) (Bos taurus, UniProt P15101); assay: in vitro DBH inhibition (conversion of tyramine to octopamine, absorbance at 330 nm); type: biochemical; settings: for DBH inhibiting activity: phenolic hydroxy group replaced by isostere
T1 sequence (P15101 1-610): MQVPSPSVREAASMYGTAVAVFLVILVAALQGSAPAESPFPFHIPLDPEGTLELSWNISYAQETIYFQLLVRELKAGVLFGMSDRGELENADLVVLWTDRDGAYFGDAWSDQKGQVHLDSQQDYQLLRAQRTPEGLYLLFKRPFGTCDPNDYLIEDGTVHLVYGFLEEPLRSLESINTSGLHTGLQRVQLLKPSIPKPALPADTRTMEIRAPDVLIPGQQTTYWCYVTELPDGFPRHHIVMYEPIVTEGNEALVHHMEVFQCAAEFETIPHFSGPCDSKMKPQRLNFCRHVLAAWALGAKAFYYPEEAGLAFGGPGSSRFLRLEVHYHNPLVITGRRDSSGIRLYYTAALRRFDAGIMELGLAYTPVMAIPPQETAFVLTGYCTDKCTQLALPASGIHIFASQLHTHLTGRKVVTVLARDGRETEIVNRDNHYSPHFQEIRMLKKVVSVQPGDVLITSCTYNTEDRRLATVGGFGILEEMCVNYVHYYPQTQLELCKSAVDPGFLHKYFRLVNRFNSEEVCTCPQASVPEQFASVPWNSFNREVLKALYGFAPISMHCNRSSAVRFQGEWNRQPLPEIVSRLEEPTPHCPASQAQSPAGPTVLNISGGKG
Method: Because the compounds of Formula I inhibit DBH activity, they have therapeutic value as diuretic, natriuretic, cardiotonic, antihypertensive and vasodilator agents, as well as antiulcerogenic and anti-Parkinsonian agents. Listed in Table I are the compounds of the invention that were tested for in vitro DBH inhibition by a standard procedure for assaying conversion of tyramine to octopamine in the presence of DBH. J. J. Pisano, et al., Biochim. Biophys. Acta; 43, […] (1960). Octopamine was assayed following sodium periodate oxidation to p-hydroxybenzaldehyde by measuring spectrophotometric absorbance at 330 nm. In Table I, inhibition is given in molar concentration of compound at which DBH activity was halved (IC50). Melting points (mp) are given in °C.
This testing was performed using compounds prepared by substituting various phenolic isosteres for the phenolic hydroxy group of another DBH inhibitor, 1-(3',5'-difluoro-4'-hydroxybenzyl)imidazole-2-thiol (U.S. patent application Ser. No. 590,665, filed Mar. 19, 1984).

DBH [2] = settings: Friedman et al. 1978; significance uncertain; cited from earlier work
[3] = test system: peripheral dopamine (DA) and norepinephrine (NE) levels; assay: in vivo effect on peripheral dopamine (DA) and norepinephrine (NE) levels; parameters: species or system spontaneously hypertensive rats; settings: 50 mg/kg orally, twice, about 18 h apart, sacrificed about 2 h after second dose; for DA/NE Ratio / DA: p < 0.001; for NE / DA: μg per gram of tissue
Method: One of the compounds of the invention was tested for its effect in vivo on peripheral dopamine (DA) and norepinephrine (NE) levels substantially by the procedure of DaPrada and Zurcher, Life Sciences, 19, 1161, (1976). Groups of five spontaneously hypertensive rats were dosed orally, twice, the second dose approximately 18 hours after the first, and were sacrificed about 2 hours after the second dose.

[4] = mean arterial blood pressure in spontaneously hypertensive rats; type: in vivo; settings: 50 mg/kg intraperitoneally; 15 min
Method: Further, spontaneously hypertensive rats were dosed with a suspension or solution of 1-(4'-amino-3',5'-difluorobenzyl)imidazole-2-thiol at a dose of 50 mg/kg intraperitoneally, and mean arterial blood pressure was monitored for 260 minutes using indwelling cannulae positioned in the tail arteries. Approximate forty percent reductions in blood pressure were observed fifteen minutes following administration of this compound. At 260 minutes after administration of this compound, blood pressure remained reduced by approximately ten percent when compared to vehicle-treated controls.

DBH [5] = settings: cited from earlier work; for mode of DBH inhibition: apparent, phenethylamine analogues; for DBH inhibition: literature reports
[6] = Teresawa et al. 1971; cited from earlier work
[7] = Ehrreich et al. 1976; cited from earlier work
[8] = in vitro, tyramine to octopamine, read-out: IC50 (molar concentration of compound at which DBH activity was halved)

- IC50 ([1]; comparison compound of U.S. patent application Ser. No. 590,665, read-out: IC50 of comparison DBH inhibitor): 80 nM
Compound: Oc1c(F)cc(Cn2cc[nH]c2=S)cc1F [1-(3',5'-difluoro-4'-hydroxybenzyl)imidazole-2-thiol]

- DBH inhibiting activity ([1]; in vitro): devoid of DBH inhibiting activity
Compound: O=C(Nc1c(F)cc(Cn2ccnc2S)cc1F)C(F)(F)F [--NHCOCF3]

Compound: COC(=O)[C@H]1[C@H]2C[C@@H]3c4[nH]c5cc(OC)ccc5c4CCN3C[C@H]2C[C@@H](OC(=O)c2cc(OC)c(OC)c(OC)c2)[C@@H]1OC [reserpine]
- DBH levels in treated patients (DBH [2]): lowered DBH levels

- IC50 [1, 8]: 1200 nM
Compound: Nc1c(F)cc(Cn2ccnc2S)cc1F [1-(4'-amino-3',5'-difluorobenzyl)imidazole-2-thiol]
- DA/NE Ratio [3]: 0.151
- NE [3]: 5.53 µg/g
- DA [3]: 0.821 µg/g
- reduction in blood pressure, fifteen minutes after administration [4]: forty

Compound: NOCc1ccccc1 [Benzyloxyamine, benzyloxyamine]
- mode of DBH inhibition (DBH [5]): competitive inhibitors

- DBH inhibiting activity ([1]; in vitro): devoid of DBH inhibiting activity
Compound: O=CNc1c(F)cc(Cn2ccnc2S)cc1F [--NHCHO]

Compound: CN(C)C(=S)SCc1ccc(C(=O)O)nc1 [5-(dimethyldithiocarbamoyl)methylpicolinic acid]
- DBH inhibition (DBH [5]): DBH inhibitors

Compound: phenylpicolinic acid
- DBH inhibitory activity relative to fusaric acid (DBH [5]; Runti et al. 1980): twice the inhibitory activity of fusaric acid

- IC50 [1, 8]: 3100 nM
Compound: Nc1c(Cl)cc(Cn2ccnc2S)cc1Cl [1-(4'-amino-3',5'-dichlorobenzyl)imidazole-2-thiol]

Compound: NNCc1ccccc1 [benzylhydrazine]
- mode of DBH inhibition (DBH [5]): competitive inhibitors

Compound: O=C(O)c1ccc(CCCCCl)cn1 [5-(4-chlorobutyl)picolinic acid]
- DBH inhibition (DBH [5]): inhibit DBH

Compound: O=C(O)c1ccc(CCC(Br)CBr)cn1 (stereo not shown) [5-(3,4-dibromobutyl)picolinic acid]
- DBH inhibition (DBH [5]): DBH inhibitors

- DBH inhibiting activity ([1]; in vitro): devoid of DBH inhibiting activity
Compound: NS(=O)(=O)Nc1c(F)cc(Cn2ccnc2S)cc1F [--NHSO2 NH2]

- DBH inhibiting activity ([1]; in vitro): devoid of DBH inhibiting activity
Compound: CS(=O)(=O)Cc1c(F)cc(Cn2ccnc2S)cc1F [--CH2 SO2 CH3]

Compound: C[C@](N)(Cc1ccc(O)c(O)c1)C(=O)O [alpha-methyl-DOPA]
- DBH levels in treated patients (DBH [2]): lowered DBH levels

Compound: CCCCc1ccc(C(=O)O)nc1 [Fusaric acid]
- DA/NE Ratio [3]: 0.0937
- NE [3]: 5.63 µg/g
- DA [3]: 0.529 µg/g
- hepatotoxicity [6]: hepatotoxic

Compound: CCCCc1ccc(C(N)=O)nc1 [Bupicomide, 5-(n-butyl)picolinamine]
- antihypertensive activity [7]: antihypertensive activity
- DBH inhibition (DBH [5]): DBH inhibitor
